Where two headings read alike, the source gives them in different places.
Tests used:
[1] = system: phosphorylated AKT Ser473 (pAKT S473), mTORC2 activity, PC3 cells; experiment: mTOR target engagement assay, immunofluorescent cell-based, pAKT S473 readout (mTORC2 activity); conditions: Homo sapiens, PC-3, Table 6-1; PC3 cells
Method in brief: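 After blocking, cells were stained overnight at 4 °C with anti-pAKT S473 antibody, then a fluorescent secondary; inhibition was read as reduced fluorescence intensity.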

[2] = system: phosphorylated 4E-BP1 Thr37/46 (p4E-BP1 Thr37/46), mTORC1 activity, PC3 cells; experiment: mTOR target engagement assay, immunofluorescent cell-based, p4E-BP1 Thr37/46 readout (mTORC1 activity); conditions: Homo sapiens
Method in brief: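 PTEN-mutant PC3 prostate cells were treated with serially diluted compound in 5% FBS F12 medium (0.25% DMSO) for ninety minutes at 37° C, glyoxal-fixed, then immunostained overnight at 4° C for p4E-BP1 Thr37/46 with an Alexa Fluor 488 secondary. IC50 came from four-parameter fits of fluorescence, DMSO-only wells defining 100%.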

[3] = PC-3, Table 6-1, PC3 cells, read-out: p4E-BP1 Thr37/46 IC50

SMILES | IC50 [1] [nM] | IC50 [2, 3] [nM] | IC50 ([2]; PC-3, read-out: p4E-BP1 Thr37/46 IC50) [nM]
CCc1c([C@@H]2C[C@H]3CC[C@@H](C2)N3C(=O)CO)nc2c(-c3ccc(-c4ncc[nH]4)nc3)cnn2c1N [Compound 6.5, 1-((1R,3s,5S)-3-(3-(6-(1H-imidazol-2-yl)pyridin-3-yl)-7-amino-6-ethylpyrazolo[1,5-a]pyrimidin-5-yl)-8-azabicyclo[3.2.1]octan-8-yl)-2-hydroxyethanone] | 1 to 100 | 1 to 100 | –
CS(=O)(=O)c1c([C@@H]2C[C@H]3CC[C@@H](C2)N3C(=O)CO)nc2c(-c3ccc(-c4ncc[nH]4)nc3)cnn2c1N [Compound 6.6, 1-((1R,3s,5S)-3-(3-(6-(1H-imidazol-2-yl)pyridin-3-yl)-7-amino-6-(methylsulfonyl)pyrazolo [1,5-a]pyrimidin-5-yl)-8-azabicyclo[3.2.1]octan-8-yl)-2-hydroxyethanone] | 1 to 100 | 1 to 100 | –
C=C(C)c1c([C@@H]2C[C@H]3CC[C@@H](C2)N3C(=O)CO)nc2c(-c3ccc(-c4ncc[nH]4)nc3)cnn2c1N [Compound 6.7, 1-((1R,3s,5S)-3-(3-(6-(1H-imidazol-2-yl)pyridin-3-yl)-7-amino-6-(prop-1-en-2-yl)pyrazolo[1,5-a]pyrimidin-5-yl)-8-azabicyclo[3.2.1]octan-8-yl)-2-hydroxyethanone] | 1 to 100 | 1 to 100 | –
CC(=O)c1c([C@@H]2C[C@H]3CC[C@@H](C2)N3S(C)(=O)=O)nc2c(-c3ccc(-c4ncc[nH]4)nc3)cnn2c1N [Compound 6.10, 1-(3-(6-(1H-imidazol-2-yl)pyridin-3-yl)-7-amino-5-((1R,3s,5S)-8-(methylsulfonyl)-8-azabicyclo[3.2.1]octan-3-yl)pyrazolo[1,5-a]pyrimidin-6-yl)ethanone] | 1 to 100 | 1 to 100 | –
CC(=O)c1c([C@@H]2C[C@H]3CC[C@@H](C2)N3C(=O)c2cc[nH]c2)nc2c(-c3ccc(-c4ncc[nH]4)nc3)cnn2c1N [Compound 6.11, 1-(3-(6-(1H-imidazol-2-yl)pyridin-3-yl)-5-((1R,3s,5S)-8-(1H-pyrrole-3-carbonyl)-8-azabicyclo[3.2.1]octan-3-yl)-7-aminopyrazolo[1,5-a]pyrimidin-6-yl)ethanone] | 1 to 100 | 1 to 100 | –
CC(=O)c1c([C@@H]2C[C@H]3CC[C@@H](C2)N3C(=O)[C@@H](C)O)nc2c(-c3ccc(-c4ncc[nH]4)nc3)cnn2c1N [Compound 6.12, (R)-1-((1R,3S,5S)-3-(3-(6-(1H-imidazol-2-yl)pyridin-3-yl)-6-acetyl-7-aminopyrazolo[1,5-a]pyrimidin-5-yl)-8-azabicyclo[3.2.1]octan-8-yl)-2-hydroxypropan-1-one] | 1 to 100 | 1 to 100 | –
Nc1c(C2CC2)c([C@@H]2C[C@H]3CC[C@@H](C2)N3C(=O)c2cc[nH]c2)nc2c(-c3ccc(-c4ncc[nH]4)nc3)cnn12 [Compound 6.14, ((1R,3s,5S)-3-(3-(6-(1H-imidazol-2-yl)pyridin-3-yl)-7-amino-6-cyclopropylpyrazolo [1,5-a]pyrimidin-5-yl)-8-azabicyclo[3.2.1]octan-8-yl)(1H-pyrrol-3-yl)methanone] | 1 to 100 | 100 to 1000 | –
CC(=O)c1c([C@@H]2C[C@H]3CC[C@@H](C2)N3C=O)nc2c(-c3ccc(-c4ncc[nH]4)nc3)cnn2c1N [Compound 6.15, (1R,3s,5S)-3-(3-(6-(1H-imidazol-2-yl)pyridin-3-yl)-6-acetyl-7-aminopyrazolo[1,5-a]pyrimidin-5-yl)-8-azabicyclo[3.2.1]octane-8-carbaldehyde] | 1 to 100 | 1 to 100 | –
COCC(=O)N1[C@@H]2CC[C@H]1C[C@H](c1nc3c(-c4ccc(-c5ncc[nH]5)nc4)cnn3c(N)c1C(C)=O)C2 [Compound 6.16, 1-((1R,3s,5S)-3-(3-(6-(1H-imidazol-2-yl)pyridin-3-yl)-6-acetyl-7-aminopyrazolo[1,5-a]pyrimidin-5-yl)-8-azabicyclo[3.2.1]octan-8-yl)-2-methoxyethanone] | 1 to 100 | 1 to 100 | –
CC(=O)c1c([C@@H]2C[C@H]3CC[C@@H](C2)N3C(C)=O)nc2c(-c3ccc(-c4ncc[nH]4)nc3)cnn2c1N [Compound 6.18, 1-(3-(6-(1H-imidazol-2-yl)pyridin-3-yl)-5-((1R,3s,5S)-8-acetyl-8-azabicyclo[3.2.1]octan-3-yl)-7-aminopyrazolo[1,5-a]pyrimidin-6-yl)ethanone] | 1 to 100 | 1 to 100 | –
CC(=O)c1c([C@@H]2C[C@H]3CC[C@@H](C2)N3C(=O)C2CCCO2)nc2c(-c3ccc(-c4ncc[nH]4)nc3)cnn2c1N (stereo partly drawn) [Compound 6.19, 1-(3-(6-(1H-imidazol-2-yl)pyridin-3-yl)-7-amino-5-((1R,3s,5S)-8-(tetrahydrofuran-2-carbonyl)-8-azabicyclo[3.2.1]octan-3-yl)pyrazolo[1,5-a]pyrimidin-6-yl)ethanone] | 1 to 100 | 100 to 1000 | –
CC(=O)c1c([C@@H]2C[C@H]3CC[C@@H](C2)N3C(=O)c2nnc(N)[nH]2)nc2c(-c3ccc(-c4ncc[nH]4)nc3)cnn2c1N [Compound 6.20, 1-(3-(6-(1H-imidazol-2-yl)pyridin-3-yl)-7-amino-5-((1R,3s,5S)-8-(5-amino-4H-1,2,4-triazole-3-carbonyl)-8-azabicyclo[3.2.1]octan-3-yl)pyrazolo[1,5-a]pyrimidin-6-yl)ethanone] | 1 to 100 | 1 to 100 | –
CC(=O)c1c([C@@H]2C[C@H]3CC[C@@H](C2)N3C(=O)c2nnc(C)[nH]2)nc2c(-c3ccc(-c4ncc[nH]4)nc3)cnn2c1N [Compound 6.21, 1-(3-(6-(1H-imidazol-2-yl)pyridin-3-yl)-7-amino-5-((1R,3s,5S)-8-(5-methyl-4H-1,2,4-triazole-3-carbonyl)-8-azabicyclo[3.2.1]octan-3-yl)pyrazolo[1,5-a]pyrimidin-6-yl)ethanone] | 1 to 100 | 1 to 100 | –
CC(=O)c1c([C@@H]2C[C@H]3CC[C@@H](C2)N3C(=O)CF)nc2c(-c3ccc(-c4ncc[nH]4)nc3)cnn2c1N [Compound 6.22, 1-((1R,3s,5S)-3-(3-(6-(1H-imidazol-2-yl)pyridin-3-yl)-6-acetyl-7-aminopyrazolo[1,5-a]pyrimidin-5-yl)-8-azabicyclo[3.2.1]octan-8-yl)-2-fluoroethanone] | 1 to 100 | – | 1 to 100
CC(=O)c1c([C@@H]2C[C@H]3CC[C@@H](C2)N3C(=O)C(C)F)nc2c(-c3ccc(-c4ncc[nH]4)nc3)cnn2c1N (stereo partly drawn) [Compound 6.23, 1-((1R,3s,5S)-3-(3-(6-(1H-imidazol-2-yl)pyridin-3-yl)-6-acetyl-7-aminopyrazolo[1,5-a]pyrimidin-5-yl)-8-azabicyclo[3.2.1]octan-8-yl)-2-fluoropropan-1-one] | 1 to 100 | 100 to 1000 | –
CNC(=O)N1[C@@H]2CC[C@H]1C[C@H](c1nc3c(-c4ccc(-c5ncc[nH]5)nc4)cnn3c(N)c1C(C)=O)C2 [Compound 6.24, (1R,3s,5S)-3-(3-(6-(1H-imidazol-2-yl)pyridin-3-yl)-6-acetyl-7-aminopyrazolo[1,5-a]pyrimidin-5-yl)-N-methyl-8-azabicyclo[3.2.1]octane-8-carboxamide] | 1 to 100 | 1 to 100 | –
COC(=O)N1[C@@H]2CC[C@H]1C[C@H](c1nc3c(-c4ccc(-c5ncc[nH]5)nc4)cnn3c(N)c1C(C)=O)C2 [Compound 6.25, (1R,3s,5S)-methyl 3-(3-(6-(1H-imidazol-2-yl)pyridin-3-yl)-6-acetyl-7-aminopyrazolo[1,5-a]pyrimidin-5-yl)-8-azabicyclo[3.2.1]octane-8-carboxylate] | 1 to 100 | 1 to 100 | –
CC(=O)c1c([C@@H]2C[C@H]3CC[C@@H](C2)N3C(=O)CO)nc2c(-c3ccc(-c4ncc(C)[nH]4)nc3)cnn2c1N [Compound 6.26, 1-((1R,3s,5S)-3-(6-acetyl-7-amino-3-(6-(5-methyl-1H-imidazol-2-yl)pyridin-3-yl)pyrazolo[1,5-a]pyrimidin-5-yl)-8-azabicyclo[3.2.1]octan-8-yl)-2-hydroxyethanone] | 1 to 100 | 1 to 100 | –
Cc1cnc(-c2ccc(-c3cnn4c(N)c(C5CC5)c([C@@H]5C[C@H]6CC[C@@H](C5)N6C(=O)CO)nc34)cn2)[nH]1 [Compound 6.27, 1-((1R,3s,5S)-3-(7-amino-6-cyclopropyl-3-(6-(5-methyl-1H-imidazol-2-yl)pyridin-3-yl)pyrazolo[1,5-a]pyrimidin-5-yl)-8-azabicyclo[3.2.1]octan-8-yl)-2-hydroxyethanone] | 1 to 100 | 1 to 100 | –
CC(=O)c1c([C@@H]2C[C@H]3CC[C@@H](C2)N3C(N)=O)nc2c(-c3ccc(-c4ncc[nH]4)nc3)cnn2c1N [Compound 6.30, (1R,3s,5S)-3-(3-(6-(1H-imidazol-2-yl)pyridin-3-yl)-6-acetyl-7-aminopyrazolo[1,5-a]pyrimidin-5-yl)-8-azabicyclo[3.2.1]octane-8-carboxamide] | 1 to 100 | 1 to 100 | –
NC(=O)N1[C@@H]2CC[C@H]1C[C@H](c1nc3c(-c4ccc(-c5ncc[nH]5)nc4)cnn3c(N)c1C1CC1)C2 [Compound 6.31, (1R,3s,5S)-3-(3-(6-(1H-imidazol-2-yl)pyridin-3-yl)-7-amino-6-cyclopropylpyrazolo [1,5-a]pyrimidin-5-yl)-8-azabicyclo[3.2.1]octane-8-carboxamide] | 1 to 100 | 1 to 100 | –
Cc1nc(-c2ccc(-c3cnn4c(N)c(C5CC5)c([C@@H]5C[C@H]6CC[C@@H](C5)N6C(=O)CO)nc34)cn2)[nH]c1C [Compound 6.32, 1-((1R,3s,5S)-3-(7-amino-6-cyclopropyl-3-(6-(4,5-dimethyl-1H-imidazol-2-yl)pyridin-3-yl)pyrazolo[1,5-a]pyrimidin-5-yl)-8-azabicyclo[3.2.1]octan-8-yl)-2-hydroxyethanone] | 1 to 100 | 100 to 1000 | –
